{"source": "patent US5767142A", "about": "“Trisbenzimidazoles useful as topoisomerase I inhibitors” (Rutgers, The State University of New Jersey, priority 1996, dated 1998)", "key": {"[1]": {"tested_on": "human ovarian tumor cell line, A2780", "assay": "Cytotoxicity, ovarian tumor cell line A2780", "assay_type": "cell-based", "protocol": "(§1) The cytotoxicity was determined using the as MTT-microtiter plate tetrazolinium cytotoxicity assay (MTA) following the procedures of F. Denizot et al., J. Immunol. Methods, 89, 271 (1986); J. Carmichael et al., Cancer Res., 47, 936 (1987) and T. J. Mosmann et al., Immunol. Methods, 65, 55 (1983). The human lymphoblast RPMI 8402 and its camptothecin-resistant variant cell line, CPT-K5 were provided by Dr. Toshiwo Andoh (Aichi Cancer Center Research Institute, Nagoya, Japan). See, for example, T. Andoh et al., Adv. Pharmacol., 29B, 93 (1994). The cytotoxicity assay was performed using 96-well microtiter plates. Cells were grown in suspension at 37° C. in 5% CO2 and maintained by regular passage in RPMI medium supplemented with 10% heat inactivated fetal bovine serum, L-glutamine (2 mM), penicillin (100 U/ml), and streptomycin (0.1 mg/ml). For determination of IC50, cells were exposed continuously with varying concentrations of drug concentrations and MTT assays were performed at the end of the fourth day."}, "[2]": {"tested_on": "human lymphoblast RPMI 8402 cells", "assay": "MTT cytotoxicity assay, RPMI 8402", "assay_type": "cell-based", "conditions": "for IC50: Homo sapiens, RPMI 8402, 96 h, 4 days continuous drug exposure, read-out: Cytotoxicity IC50, RPMI", "protocol": "(§2) The cytotoxicity was determined using the as MTT-microtiter plate tetrazolinium cytotoxicity assay (MTA) following the procedures of F. Denizot et al., J. Immunol. […] The cytotoxicity assay was performed using 96-well microtiter plates. Cells were grown in suspension at 37° C. in 5% CO2 and maintained by regular passage in RPMI medium supplemented with 10% heat inactivated fetal bovine serum, L-glutamine (2 mM), penicillin (100 U/ml), and streptomycin (0.1 mg/ml). For determination of IC50, cells were exposed continuously with varying concentrations of drug concentrations and MTT assays were performed at the end of the fourth day."}, "[3]": {"tested_on": "CPT-2000, a variant of A2780", "assay": "Cytotoxicity, camptothecin-resistant CPT-2000", "assay_type": "cell-based", "conditions": "Homo sapiens", "protocol": "as §1"}, "[4]": {"tested_on": "CPT-K5 cells (camptothecin-resistant variant of RPMI 8402)", "assay": "MTT cytotoxicity assay, camptothecin-resistant CPT-K5", "assay_type": "cell-based, human", "conditions": "for Relative resistance (ratio of IC50 values of resistant versus drug sensitive cell line): CPT-K5 versus RPMI 8402, 5760 min; for IC50: Homo sapiens, CPT-K5, 96 h, read-out: Cytotoxicity IC50, CPT-K5", "protocol": "as §2"}, "[5]": {"tested_on": "KBV-1 cells (multidrug-resistant variant of KB3-1, overexpress MDR1)", "assay": "MTT cytotoxicity assay, multidrug-resistant KBV-1", "assay_type": "cell-based, human", "conditions": "for IC50: Homo sapiens, KB-V1, 96 h, read-out: Cytotoxicity IC50, KBV-1", "protocol": "as §2\n(§3) These cells were grown as monolayer cultures at in 5% CO2 and maintained by regular passage in Dulbecco's minimal essential medium supplemented with 10% heat inactivated fetal bovine serum. KBV-1 cells were similarly maintained except they were grown in the presence of 1 μg/ml vinblastine."}, "[6]": {"tested_on": "human MDR1 (P-glycoprotein)", "assay": "Substrate of human MDR1 (P-glycoprotein), from cytotoxicity in KB 3-1 and KB V-1 cells", "assay_type": "cell-based", "conditions": "concluded from KB 3-1 / KB V-1 IC50 values", "protocol": "The drug sensitive human epidermoid carcinoma KB3-1 cell line (S. Aliyama et al., Somatic Cell Mol. Genet, 11, 117 (1985)) and its vinblastine-selected multidrug-resistant variant KBV-1 cells (D. W. Shen et al., Science, 32, 643 (1986)) were provided by Dr. Michael Gottesmann (National Cancer Institute, Bethesda, ML). These cells were grown as monolayer cultures at in 5% CO2 and maintained by regular passage in Dulbecco's minimal essential medium supplemented with 10% heat inactivated fetal bovine serum. KBV-1 cells were similarly maintained except they were grown in the presence of 1 μg/ml vinblastine.\nThe cytotoxic activity of Hoechst 33342 and 13 was also evaluated against KB 3-1 and KB V-1 cells. The primary difference between these cell lines is in the degree to which human MDR1 (P-glycoprotein) is expressed. […] Pharmacol., 245, 29B (1994)."}, "[7]": {"molecular_target": "T1, calf thymus topoisomerase I (Bos taurus, UniProt A0AAA9TV68)", "T1 construct": "plasmid YEpG DNA cleavage assay", "T1 sequence (A0AAA9TV68 2-769)": "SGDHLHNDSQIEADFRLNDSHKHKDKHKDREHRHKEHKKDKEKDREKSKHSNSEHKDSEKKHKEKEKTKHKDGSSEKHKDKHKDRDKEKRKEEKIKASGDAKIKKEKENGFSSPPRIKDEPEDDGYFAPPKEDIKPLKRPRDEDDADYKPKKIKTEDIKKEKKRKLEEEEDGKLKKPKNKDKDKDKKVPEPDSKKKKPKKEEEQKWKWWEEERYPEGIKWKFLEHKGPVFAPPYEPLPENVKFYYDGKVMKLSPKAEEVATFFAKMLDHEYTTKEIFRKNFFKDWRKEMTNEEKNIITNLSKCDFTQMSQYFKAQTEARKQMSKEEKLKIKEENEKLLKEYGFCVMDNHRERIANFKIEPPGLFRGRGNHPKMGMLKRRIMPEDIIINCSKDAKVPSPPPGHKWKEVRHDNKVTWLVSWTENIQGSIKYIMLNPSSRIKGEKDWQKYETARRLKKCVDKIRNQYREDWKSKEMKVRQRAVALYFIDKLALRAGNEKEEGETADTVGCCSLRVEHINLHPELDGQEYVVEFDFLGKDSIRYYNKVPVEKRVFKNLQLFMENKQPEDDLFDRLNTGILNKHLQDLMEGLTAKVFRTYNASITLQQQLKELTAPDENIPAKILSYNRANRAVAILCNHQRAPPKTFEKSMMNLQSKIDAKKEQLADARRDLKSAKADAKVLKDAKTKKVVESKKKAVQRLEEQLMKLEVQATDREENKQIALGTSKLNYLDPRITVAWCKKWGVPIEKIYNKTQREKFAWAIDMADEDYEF", "assay": "Topoisomerase I-mediated DNA cleavage assay (calf thymus topoisomerase I, plasmid YEpG)", "assay_type": "biochemical", "from_the_text": "DNA topoisomerase I was purified from calf thymus gland as reported previously by B. D. Halligan et al., J. Biol. Chem., 260, 2475 (1985). Plasmid YEpG was also purified by the alkali lysis method followed by phenol deproteination and CsCl/ethidium isopycnic centrifugation as described by T. Mariatis et al., Molecular Cloning, A Laboratory Manual, Cold Spring Harbor Labs, NY (1982) at pages 149-185. The end-labeling of the plasmid was accomplished as previously described by L. F. Liu et al., J. Biol. Chem., 258, 15365 (1983). The cleavage assays were performed as previously reported by A. Y. Chen et al., Cancer Res., 53, 1332 (1993). Human topoisomerase was isolated as a recombinant fusion protein using a T7 expression system.\n^b Topoisomerase I cleavage values are reported as REC, Relative\nEffective Concentration, i.e. concentrations relative to Hoechst 33342,\nwhose value is arbitrarily assumed as 1, that are able to produce the sam\ncleavage on the plasmid DNA in the presence of calf thymus topoisomerase\nI. Cleavage is calculated from the intensity of the strongest Hoechst"}, "topoisomerase I": {"tested_on": "topoisomerase I", "conditions": "literature; cited from earlier work"}, "[8]": {"tested_on": "human epidermoid carcinoma KB3-1 cell line", "assay": "MTT cytotoxicity assay, KB3-1", "assay_type": "cell-based", "conditions": "KB 3-1, 96 h, 4 days continuous drug exposure", "protocol": "as §2, §3"}, "[9]": {"conditions": "cited from earlier work"}, "[10]": {"tested_on": "KBV-1 cells (multidrug-resistant variant of KB3-1, overexpress MDR1)", "conditions": "cited from earlier work"}, "[11]": {"tested_on": "human epidermoid carcinoma KB3-1 cell line", "conditions": "previously reported; read-out: IC50 of Hoechst 33342 in KB 3-1 cells; cited from earlier work"}, "[12]": {"conditions": "4 days continuous drug exposure"}}, "note": "Entries after “also recorded” stand apart in the source; their conditions may differ. Like-named read-outs stand apart in the source and are kept apart here."}
{"smiles": "c1ccc(-c2ccc3nc(-c4ccc5nc(-c6ccc7nc[nH]c7c6)[nH]c5c4)[nH]c3c2)cc1", "note": "[Compound 13, 5-Phenyl-2-[2'(benzimidazol-5\"-yl)benzimidazol-5'-yl]benzimidazole]", "values": [{"measurement": "IC50", "setting": "[1]", "value": 0.015, "unit": "µg/mL"}, {"measurement": "Cytotoxicity towards RPMI 8402 (in words)", "setting": "[2]", "value": "significant cytotoxicity"}, {"measurement": "IC50", "setting": "[2]", "value": 90, "unit": "nM"}, {"measurement": "IC50", "setting": "[3]", "value": 0.03, "unit": "µg/mL"}, {"measurement": "Cytotoxicity against CPT-K5 cells (in words)", "setting": "[4]", "value": "effective against camptothecin-resistant CPT-K5 cells"}, {"measurement": "Relative resistance (ratio of IC50 values of resistant versus drug sensitive cell line)", "setting": "[4]", "value": "approximately 30 fold"}, {"measurement": "IC50", "setting": "[4]", "value": 580, "unit": "nM"}, {"measurement": "IC50", "setting": "[5]", "value": 350, "unit": "nM"}, {"measurement": "Difference of cytotoxicity between KB 3-1 and KB V-1 cells (in words)", "setting": "[5]; KB 3-1 versus KB V-1", "value": "little difference between the IC50 values"}, {"measurement": "Substrate for human MDR1 (in words)", "setting": "[6]", "value": "appears not to be a substrate for human MDR1"}, {"measurement": "Potency as topoisomerase I inhibitor (in words)", "setting": "[7]", "value": "approximately one-half as potent as Hoechst 33342 as a topoisomerase I inhibitor"}]}
{"smiles": "CCOc1ccc(-c2nc3cc(-c4nc5cc(N6CCN(C)CC6)ccc5[nH]4)ccc3[nH]2)cc1", "note": "[Hoechst 33342, 2'-(4-ethoxyphenyl)-5-(4-methyl-1-piperazinyl)-2,5'-bi-1H-benzimidazole, reference compound]", "values": [{"measurement": "IC50", "setting": "[2]", "value": 30, "unit": "nM"}, {"measurement": "Inhibition of topoisomerase I (in words)", "setting": "topoisomerase I", "value": "is an inhibitor of topoisomerase I; also recorded: traps the reversible cleavable complex derived from DNA and topoisomerase I and produces a limited number of highly specific single-strand DNA breaks"}, {"measurement": "IC50", "setting": "[8]", "value": 10, "unit": "nM"}, {"measurement": "Cytotoxicity against CPT-K5 cells (in words)", "setting": "[4]", "value": "effective against camptothecin-resistant CPT-K5 cells"}, {"measurement": "Relative resistance (ratio of IC50 values of resistant versus drug sensitive cell line)", "setting": "[4]", "value": "approximately 30 fold"}, {"measurement": "IC50", "setting": "[4]; [12]", "value": 900, "unit": "nM"}, {"measurement": "IC50", "setting": "[5]; [12]", "value": 1200, "unit": "nM"}, {"measurement": "Protonation at physiological pH (in words)", "setting": "[9]", "value": "extensively protonated at physiological pH"}, {"measurement": "Topo I-mediated DNA cleavage (REC, Relative Effective Concentration)", "setting": "[7]", "value": 1}, {"measurement": "Difference of IC50 between KB 3-1 and KB V-1 cells (in words)", "setting": "[10]; as reported by A. Y. Chen et al., Adv. Pharmacol., 245, 29B (1994)", "value": "differs by approximately two-orders of magnitude"}, {"measurement": "less cytotoxic to KB V-1 cells than to KB 3-1 cells", "setting": "[10]; previously reported, KB V-1 overexpress MDR1", "value": "approximately 130 fold"}, {"measurement": "Efficacy against tumor cell lines which overexpress MDR1 (in words)", "setting": "[10]; previously reported", "value": "not effective against tumor cell lines which overexpress MDR1"}, {"measurement": "IC50", "setting": "[11]", "value": "~9", "unit": "nM"}]}
